Source: ChEMBL document CHEMBL4627380, “Phaeosphaones: Tyrosinase Inhibitory Thiodiketopiperazines from an Endophytic Phaeosphaeria fuckelii” (J Nat Prod, 2020)
Active and inactive are the calls of the source. The calls are words filed in the database; no cut-off is given here.

Experiments:
Homo sapiens = species on record: Homo sapiens; experiment: Inhibition of alpha-glucosidase (unknown origin) at 100 uM
Mushroom tyrosinase = Mushroom tyrosinase (Agaricus bisporus, UniProt O42713+Q00024+C7FF04+C7FF05); experiment: Inhibition of mushroom tyrosinase using L-Dopa as substrate preincubated for 10 mins followed by substrate addition and measured after 5 mins

Structure (SMILES)	inhibition (Homo sapiens)	IC50 (Mushroom tyrosinase) [µM]
CO[C@]1([C@H](SC)c2c[nH]c3ccccc23)NC(=O)[C@@](SC)(C(C)C)N(C)C1=O	inactive	–
CS[C@H](c1c[nH]c2ccccc12)[C@]1(O)NC(=O)[C@@](SC)(C(C)C)N(C)C1=O	inactive	–
CS[C@]1(Cc2c[nH]c3ccccc23)NC(=O)[C@@](SC)(C(C)C)NC1=O	inactive	–
CC(C)[C@]12SS[C@]([C@@H](O)c3c[nH]c4ccccc34)(CC1=O)C(=O)N2C	inactive	–
CC(C)[C@@]12SS[C@]3(C(=O)N1C)[C@@H](O)[C@]1(c4c[nH]c5ccccc45)c4ccccc4N[C@@H]1N3C2=O	inactive	28.4
CO[C@@]1([C@H](SC)c2c[nH]c3ccccc23)NC(=O)[C@@](SC)(C(C)C)N(C)C1=O	inactive	33.2
CS[C@]1(Cc2c[nH]c3ccccc23)NC(=O)[C@](CO)(SC)N(C)C1=O [CHETOSEMINUDIN B]	inactive	31.7
CC(C)[C@@H]1NC(=O)[C@@H]2C[C@@]3(O)c4ccccc4N[C@H]3N2C1=O	inactive	–
